Assay results taken from US20240252677A1, “ONE-COMPONENT DELIVERY SYSTEM FOR NUCLEIC ACIDS” (The Trustees of the University of Pennsylvania, priority 2021, published 2024).
One block for each compound: values may come before it.

How the values were obtained:
[1] = Cryo-TEM of dendrimersomes from glycerol-JDs, number of vesicle layers; format: physicochemical
Source text: The red numbers in FIG. 85 stand for the unilamellar while yellow numbers for multilamellar DSs. The calculated percentages of unilamellar DSs in the selected images for 2R, 2S and 2rac are 91%, 70% and 13%, respectively. Same trend was found for cryo-TEM of 1R, 1S and 1rac (FIG. 86 through FIG. 88). […] Achiral DSs are all unilamellar.
Cryogenic Transmission Electron Microscopy (Cryo-TEM). Morphologies of the Janus Dendrimer assemblies were characterized by cryo-TEM. Images were acquired on a Carl Zeiss Libra 120 microscope. Samples were prepared by plunge freezing of aqueous dispersion on plasma-treated lacey grids. The vitrified specimens were then transferred to a Gatan-910 cryoholder. The 5 images were recorded at −170° C. with an acceleration voltage of 120 kV. The concentration of JD in the aqueous solution of DSs was 1 mg mL-^1.

[2] = DLS size of dendrimersomes assembled from glycerol-JDs in water at different concentrations; format: physicochemical; details: for Dh (nm): size distribution by intensity
Method: Assembly of all eight glycerol-JDs was performed by injection of their ethanol solution (50 μL) into 1 mL of Milli-Q water. The size distribution and structure of resulting DSs were analyzed by DLS (FIG. 84) and cryo-TEM. […] In a certain concentration range the size of DSs increased with the concentration of JDs injected in water or buffer. […] The dimensions of the assemblies were identical when the concentrations of the JDs in water were identical. Sizes of assemblies from mixtures of 1R and 1S in different ratios (1:3, 1:1 and 3:1), were also identical (FIG. 84). […] With the exception of the rotation of polarized light, the physical properties of enantiomers and their racemic mixtures must be identical.
Dynamic light scattering (DLS). Hydrodynamic diameters (Dh) of the self-assemblies of dendrimer molecules and their size distributions were measured on a Malvern Instruments particle sizer (Zetasizer® Nano S, Malvern Instruments, UK) equipped with 4 mW He—Ne laser (633 nm) and avalanche photodiode positioned at […] to the beam and temperature controlled cuvette holder. Experiments were performed at 25° C. in triplicate. The distribution of radius was intensity.

HEK293T cells = assay: In vitro Luc-mRNA transfection, luciferase luminescence expression in HEK293T cells; format: cell-based, human; design: unit not given here; details: CIAJD 4 mg/mL, HEK293T, 125 ng/well
Method: In Vitro Transfection Activity of DNPs in Human Embrionic Kidney (HEK) 293T Cells: HEK293T cells were seeded into 96-well plates (20,000 cells/well/200 μL) and cultured for 24 h at 37° C. in 5% CO2 complete cell culture media. Screening experiments were performed with nonoptimized DNPs containing naked nucleoside-modified mRNA (Karikó, et al., Immunity 2005, 23, 165-175; Pardi, et al., Methods Mol. Biol. 2013, 969, 29-42), of molar mass 664,341 encoding firefly luciferase (mRNA-Luc). A constant concentration of mRNA-Luc of 125 ng/well was used. The transIT (TransIT-mRNA transfection Kit from Mirus Bio) and MC3-based LNPs (MC3: DLin-MC3-DMA, which is the FDA approved LNP for mRNA delivery) were used as positive controls for cell transfection at a concentration of mRNA-Luc of 125 ng/well, identical to that of the tested DNPs. Subsequently cells were cultured for 24 h, the medium was aspirated under reduced pressure by a glass pipette and cells were lysed with 30 μL/well of cell culture lysis reagent (Promega). The luminescence intensity corresponding to the luciferase protein expressed was characterized and analyzed.
In vitro mRNA Delivery: Human embryonic kidney (HEK) 293T cells (American Type Culture Collection) were cultured in Dulbecco's modified Eagle's medium (DMEM) supplemented with 10% inactivated fetal bovine serum (FBS) (Gemini Bio-Products), 2 mM L-glutamine and 100 U/mL penicillin/streptomycin (Life Technologies) (complete medium). For in vitro screening experiments, HEK293T cells were seeded into 96-well plates (20,000 cells/well/200 μL) and cultured for 24 h in at 37° C. and 5% CO2 in complete media. Cell were transfected with IAJDs with encapsulated naked nucleoside-modified mRNA encoding firefly luciferase (mRNA-Luc) with fixed concentration of mRNA-Luc, 125 ng per well. The transIT (TransIT®-mRNA Transfection Kit, Mirus Bio) was used as a positive control for cell transfection, accordingly per manufacturer protocol and added to cells at the concentration of mRNA-Luc, 125 ng per well, the same as for tested particles. Cells were further cultured for 24 h, then medium was aspirated, and cells were lysed with 30 μL/well of cell culture lysis reagent (Promega). For the characterization of luminescence intensity, 2.5 μL of the lysed cells was mixed with 10 μL of luciferase assay substrate and luminescence was analyzed using a MiniLumat LB 9506 luminometer (Berthold/EG&G; Wallac).
Luminescence characterization for in vitro transfection experiments was performed by determining the luminescence intensity for in vitro Luc-mRNA transfection experiments using a MiniLumat LB 9506 luminometer (Berthold/EG&G; Wallac).
For in vitro Luc-mRNA transfection screening experiments, human embryonic kidney 293 cells (HEK 293) were seeded into 96-well plates (20,000 cells/well/200 μL) and cultured for 18-20 hours at 37° C., 5% CO2 in complete Dulbecco's modified Eagle's medium (DMEM) supplemented with 2 mM L-glutamine (Life Technologies), 100 U/mL penicillin/streptomycin (Invitrogen) and 10% fetal bovine serum (FBS, Gemini Bio-Products). Cells were transfected with DNPs with encapsulated naked nucleoside-modified mRNA encoding firefly luciferase (Luc-mRNA) at constant concentration of Luc-mRNA, 125 ng per well. Luc-mRNA complexed with TransIT (TransIT®-mRNA Transfection Kit, Mirus Bio) or encapsulated in FDA approved MC3-based LNPs were used as positive controls for cell transfection, at the concentration of Luc-mRNA of 125 ng per well, the same as for tested DNPs. After transfection cells were further cultured at 37° C., 5% CO2 for 18-20 hours, then medium was aspirated and cells were lysed with luciferase cell culture lysis reagent (30 μL/well) (Promega, Madison, WI). […]

[3] = Dimensions (size, PDI) of DNPs co-assembled from IAJDs and Luc-mRNA by DLS; format: physicochemical; details: CIAJD 4 mg/mL
Method: Dynamic Light Scattering (DLS) for the DNPs was performed in buffer with a Malvern Instruments particle sizer (Zetasizer Nano S, Malvern Instruments, UK) equipped with 4 mW He—Ne laser 633 nm and avalanche photodiode positioned at […] to the beam and temperature-controlled cuvette holder. Instrument parameters were determined automatically along with measurement times.
Formulation of DNPs Containing mRNA-Luc: IAJDs were dissolved in ethanol with various initial concentrations (5-160 mg/mL). Nucleoside-modified mRNA encoding firefly luciferase (mRNA-Luc) was dissolved in water with various initial concentrations (1-4 mg/mL). 12.5 μL of mRNA solution was placed into a clean RNAs free eppendorf (1.5 mL) and mixed with 463 μL of citrate buffer (10 mM, pH 3.0)/acetate buffer (10 mM). For encapsulation of mRNA into IAJDs, 25 μL of IAJDs of the ethanol stock solution was rapidly injected into mRNA solution in citrate or acetate buffer followed by vortex for 5 seconds.
(§1) Dynamic Light Scattering (DLS) for the sizes and polydispersities of DNPs was performed on a Malvern Instruments particle sizer (Zetasizer Nano S, Malvern Instruments, UK) equipped with 4 mW He—Ne laser 633 nm and avalanche photodiode positioned at 1750 to the beam and temperature-controlled cuvette holder. Instrument parameters were determined automatically along with measurement times. Sample solution (0.4 mL) was placed in a semi-micro cuvette (1.6 mL, polystyrene, 10×10×45 mm, manufactured by Greiner Bio-One) and the measurements were performed at 23° C.
Formulation of DNPs obtained by co-assembly of IAJDs and Luc-mRNA was performed as follows. IAJDs were dissolved in ethanol with an initial concentration of 80 mg/mL. Nucleoside-modified mRNA encoding firefly luciferase (Luc-mRNA) was dissolved in UltraPure DNase/RNase-free distilled water with an initial concentration of 4.0 mg/mL. 12.5 μL of Luc-mRNA solution was placed into a clean RNAs free eppendorf (1.5 mL) and 463 μL acetate buffer (10 mM, pH 4.0) was added. Then, 25 μL of IAJD in the ethanol stock solution was rapidly injected into the Luc-mRNA solution in acetate buffer followed by vortex for 5 seconds.
as §1, with “dimensions (sizes” for “sizes”, “polydispersities)” for “polydispersities”, “175°” for “1750”, “set up” for “determined”, “(c.a. 0.4” for “(0.4”, “mm,” for “mm, manufactured by”
Formulation of DNPs Co-assembled from IAJDs and Luc-mRNA: nucleoside-modified mRNA encoding firefly luciferase (Luc-mRNA) was dissolved in UltraPure DNase/RNase-free distilled water with an initial concentration of 4.0 mg/mL. IAJD molecules were dissolved in ethanol with an initial concentration of 80 mg/mL. 12.5 μL of Luc-mRNA solution was taken and placed into a clean RNAs free eppendorf (1.5 mL). Then 463 μL of acetate buffer (10 mM, pH 4.0) was added. Afterwards, 25 μL of IAJD in the ethanol stock solution was taken and rapidly injected into the above Luc-mRNA solution in acetate buffer followed by vortex for 5 seconds.

[4] = Acetate buffer 10 mM pH 4.0, CLuc-mRNA 0.05 mg/mL
[5] = Acetate buffer 10 mM pH 5.2, CLuc-mRNA 0.10 mg/mL
[6] = Citrate buffer 10 mM pH 3.0, CLuc-mRNA 0.05 mg/mL

Number of vesicle layers: 1 (count of vesicles) ([1]; vesicles with 1 layer): 7
Number of vesicle layers: 2 (count of vesicles) ([1]; vesicles with 2 layers): 6
Number of vesicle layers: 3 (count of vesicles) ([1]; vesicles with 3 layers): 2
Number of vesicle layers: 4 (count of vesicles) ([1]; vesicles with 4 layers): 1
Number of vesicle layers: 5 (count of vesicles) ([1]; vesicles with 5 layers): 1
Number of vesicle layers: 6 (count of vesicles) ([1]; vesicles with 6 layers): 3
PDI ([2]; JD 0.025 mg·mL−1 in water): 0.398
Dh (nm) ([2]; JD 0.025 mg·mL−1 in water): 86 nm
PDI ([2]; JD 0.05 mg·mL−1 in water): 0.277
Dh (nm) ([2]; JD 0.05 mg·mL−1 in water): 109 nm
PDI ([2]; JD 0.1 mg·mL−1 in water): 0.268
Dh (nm) ([2]; JD 0.1 mg·mL−1 in water): 123 nm
PDI ([2]; JD 0.15 mg·mL−1 in water): 0.232
Dh (nm) ([2]; JD 0.15 mg·mL−1 in water): 128 nm
PDI ([2]; JD 0.2 mg·mL−1 in water): 0.216
Dh (nm) ([2]; JD 0.2 mg·mL−1 in water): 136 nm
PDI ([2]; JD 0.25 mg·mL−1 in water): 0.238
Dh (nm) ([2]; JD 0.25 mg·mL−1 in water): 142 nm
PDI ([2]; JD 0.3 mg·mL−1 in water): 0.203
Dh (nm) ([2]; JD 0.3 mg·mL−1 in water): 153 nm
PDI ([2]; JD 0.4 mg·mL−1 in water): 0.275
Dh (nm) ([2]; JD 0.4 mg·mL−1 in water): 174 nm
PDI ([2]; JD 0.5 mg·mL−1 in water): 0.240
Dh (nm) ([2]; JD 0.5 mg·mL−1 in water): 281 nm
Compound: CCCCCCCCCCCCOc1cc(OCCCCCCCCCCCC)cc(C(=O)OCC(COC(=O)C(C)(COC(=O)c2cc(OCCOCCOCCOC)c(OCCOCCOCCOC)c(OCCOCCOCCOC)c2)COC(=O)c2cc(OCCOCCOCCOC)c(OCCOCCOCCOC)c(OCCOCCOCCOC)c2)OC(=O)c2cc(OCCCCCCCCCCCC)cc(OCCCCCCCCCCCC)c2)c1 (racemic) [Compound 1rac, (3,5)-12G1-GC-(rac)-BMPA-(3,4,5)-3EO-G1]

PDI [3, 4]: 0.330
Size (d, nm) [3, 4]: 58 nm
PDI [3, 5]: 0.284
Size (d, nm) [3, 5]: 178 nm
PDI [3, 6]: 0.460
Size (d, nm) [3, 6]: 61 nm
Compound: (3,5)-12G2-BMPA-GC-(achiral)-(3,4,5)-3EO-G1 [Compound 4]
Luminescence (HEK293T cells; [4]): 3,283
Luminescence (HEK293T cells; [5]): 1,613
Luminescence (HEK293T cells; [6]): 2,063
